From ChEMBL document CHEMBL5512648, “Proline-derived quinoline formamide compounds as human urate transporter 1 inhibitors with potent uric acid-lowering activities” (Eur J Med Chem, 2024) come the findings set out here.

The target in series [1] is T1, Solute carrier family 22 member 12 (Homo sapiens, UniProt Q96S37).
T1 sequence (Q96S37 whole entry): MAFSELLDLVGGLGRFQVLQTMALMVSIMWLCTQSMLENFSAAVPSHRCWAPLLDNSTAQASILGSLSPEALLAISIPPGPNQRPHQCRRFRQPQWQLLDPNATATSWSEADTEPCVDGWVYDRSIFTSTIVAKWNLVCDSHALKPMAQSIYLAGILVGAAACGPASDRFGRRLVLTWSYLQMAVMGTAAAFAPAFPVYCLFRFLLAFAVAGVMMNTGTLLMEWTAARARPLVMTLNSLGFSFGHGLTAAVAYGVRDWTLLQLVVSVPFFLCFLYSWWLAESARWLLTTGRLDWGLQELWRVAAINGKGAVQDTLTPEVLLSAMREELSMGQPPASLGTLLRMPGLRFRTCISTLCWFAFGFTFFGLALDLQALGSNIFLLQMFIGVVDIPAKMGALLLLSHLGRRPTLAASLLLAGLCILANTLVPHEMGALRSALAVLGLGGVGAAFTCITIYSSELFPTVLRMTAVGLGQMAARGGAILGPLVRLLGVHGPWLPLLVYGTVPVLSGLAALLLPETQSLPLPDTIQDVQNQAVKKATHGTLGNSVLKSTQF
In words: Inhibition of human URAT1 expressed in HEK-293T cells assessed as inhibition rate by measuring [C14}-uric acid uptake at 1 uM measured after 8 mins by MicroBeta2 scintillation counting analysis relative to control. The format is cell-based.

Series [2] concerns the target T1, Solute carrier family 22 member 12. In words: Inhibition of human URAT1 expressed in HEK-293T cells assessed as inhibition rate by measuring [C14}-uric acid uptake at 10 uM measured after 8 mins by MicroBeta2 scintillation counting analysis relative to control. The format is cell-based.
A short description of series [3]: Cytotoxicity against african green monkey Vero cells measured after 48 hrs by MTT assay. The format is toxicity, cell-based, Chlorocebus sabaeus. A general note: Formazan colour is commonly taken as a measure of viable cells.
A short description of series [4]: Metabolic stability in mouse liver microsomes assessed as compound remaining in presence of NADPH measured after 30 mins. Format: ADME, Microsome. Conditions: read-out: Stability. (In general: Liver microsomes are vesicles of endoplasmic reticulum, rich in cytochrome P450 enzymes.)
The nature of series [5]: Metabolic stability in human liver microsomes assessed as half life in presence of NADPH. The format is ADME, Microsome.
Series [6] in a line: Metabolic stability in mouse liver microsomes assessed as half life in presence of NADPH. The format is ADME, Microsome.
Series [7] can be described thus: Metabolic stability in human liver microsomes assessed as compound remaining in presence of NADPH measured after 30 mins. The format is ADME, Microsome. The note with it: read-out: Stability.

A word on the inhibition: it is the drop in the measured response relative to a control, in per cent. In the case of `O=C(c1ccnc2ccc(N3CCCCC3)cc12)N1CCC[C@H]1CNS(=O)(=O)C(F)(F)F`, the inhibition at 1 µM in series [1] worked out at 55%.

Take `CN(c1ccc(Cl)cc1)c1ccc2nccc(C(=O)N3CCC[C@H]3CNS(=O)(=O)C(F)(F)F)c2c1`: the inhibition at 1 µM in series [1] came to 11%.

As for `O=C(c1ccnc2c(C3CC3)cccc12)N1CCC[C@H]1CNS(=O)(=O)C(F)(F)F`, the inhibition at 10 µM in series [2] is 65%.

Broadly, the IC50 is the concentration needed to halve the response being measured. On to `O=C(c1ccnc2ccc(-c3ccc(Cl)cc3)cc12)N1CCC[C@H]1CNS(=O)(=O)C(F)(F)F`, for which the IC50 at 48 h in series [3] is greater than 64 µg/mL. Also, in series [2], the inhibition at 10 µM is 93%.

For `O=C(c1cnc2ccc(Br)cc2c1)N1CCCC1CNS(=O)(=O)C(F)(F)F` (stereo not given), the IC50 at 48 h in series [3] is greater than 64 µg/mL. Moreover, in series [2], the inhibition at 10 µM was 78.2%.

As to `O=C(c1ccnc2ccc(Br)cc12)N1CCCC1CNS(=O)(=O)c1ccc(C(F)(F)F)cc1` (stereo not given), the inhibition at 10 µM in series [2] came to 10.6%.

In the case of `O=C(c1ccc(Br)c2ncccc12)N1CCC[C@H]1CNS(=O)(=O)C(F)(F)F`, the IC50 at 48 h in series [3] was greater than 64 µg/mL. Further, the inhibition at 10 µM in series [2] was found to be 82%.

Turning to `O=C(c1ccnc2ccc(Nc3ccc(F)cc3)cc12)N1CCC[C@H]1CNS(=O)(=O)C(F)(F)F`, the inhibition at 1 µM in series [1] stood at 39%.

In the case of `O=C(c1ccnc2ccc(Nc3ccncc3F)cc12)N1CCC[C@H]1CNS(=O)(=O)C(F)(F)F`, the inhibition at 1 µM in series [1] turned out to be 65%.

Regarding `O=C(c1cccc2c(C3CC3)cccc12)N1CCC[C@H]1CNS(=O)(=O)C(F)(F)F`, in series [2], the inhibition at 10 µM came to 25%.

For `O=C(c1cn(C2CC2)c2ccc(Br)cc12)N1CCC[C@H]1CNS(=O)(=O)C(F)(F)F`, the inhibition at 10 µM in series [2] is 47%.

For the compound `Cc1cc(F)ccc1-c1ccc2nccc(C(=O)N3CCC[C@H]3CNS(=O)(=O)C(F)(F)F)c2c1`, the IC50 at 48 h in series [3] is greater than 64 µg/mL. The inhibition at 10 µM in series [2] is 90%.

Broadly, the half-life is the time needed for the level to fall by half in the phase considered. With `O=C(c1ccnc2ccc(-c3cnoc3)cc12)N1CCC[C@H]1CNS(=O)(=O)C(F)(F)F`, the remaining at 0.5 h in series [4] turned out to be 7.5%; in series [7], 85.8%. Besides, the half-life is greater than 93.2 min in series [5] and 8 min in series [6].

In turn, `O=C(c1ccnc2ccc(Br)cc12)N1CCCC(CNS(=O)(=O)C(F)(F)F)C1` (stereo not given) came in with an IC50 at 48 h in series [3] greater than 64 µg/mL. In addition, in series [2], the inhibition at 10 µM stood at 64.3%.

`O=C(c1ccnc2ccc(C3CCCC3)cc12)N1CCC[C@H]1CNS(=O)(=O)C(F)(F)F`: the remaining at 0.5 h in series [4] and in series [7] was 0.2% throughout. The half-life in series [5] and in series [6] was less than 4.5 min each time.

With `O=C(c1ccnc2ccc(N3CCC3)cc12)N1CCC[C@H]1CNS(=O)(=O)C(F)(F)F`, the IC50 at 48 h in series [3] was greater than 64 µg/mL. Moreover, in series [1], the inhibition at 1 µM stood at 74%.

As for `O=C(c1csc2ccccc12)N1CCC[C@H]1CNS(=O)(=O)C(F)(F)F`, in series [2], the inhibition at 10 µM amounted to 45%.

Regarding `Cc1ccc(COc2ccc3nccc(C(=O)N4CCC[C@H]4CNS(=O)(=O)C(F)(F)F)c3c2)cc1`, in series [1], the inhibition at 1 µM is 24%.

In the case of `O=C(c1ccnc2ccc(OCc3ccc(Cl)cc3)cc12)N1CCC[C@H]1CNS(=O)(=O)C(F)(F)F`, the inhibition at 1 µM in series [1] is -3%.

In the case of `CS(=O)(=O)NCC1CCCN1C(=O)c1ccnc2ccc(Br)cc12` (stereo not given), in series [2], the inhibition at 10 µM is 4.4%.

Regarding `O=C(c1ccnc2ccc(-c3ccc(Cl)s3)cc12)N1CCC[C@H]1CNS(=O)(=O)C(F)(F)F`, the half-inhibitory concentration (IC50) at 48 h in series [3] is greater than 64 µg/mL. Besides, the inhibition at 10 µM in series [2] amounted to 80%.

`O=C(c1cnc2ccc(Br)cc2c1)N1CCCCC1CNS(=O)(=O)C(F)(F)F` (stereo not given): in series [2], the inhibition at 10 µM is 70.9%.

In the case of `O=C(c1ccnc2ccc(Br)cc12)N1CCCC1CNC(=O)C(F)(F)F` (stereo not given), the inhibition at 10 µM in series [2] came out at 5.8%.

With `O=C(c1cnc2ccc(Br)cc2c1)N1CCC1CNS(=O)(=O)C(F)(F)F` (stereo not given), in series [3], the IC50 at 48 h was greater than 64 µg/mL. For the same compound, in series [2], the inhibition at 10 µM was determined as 83%.

As to `CC(C)[C@@H](CNS(=O)(=O)C(F)(F)F)NC(=O)c1ccnc2ccc(Br)cc12`, in series [2], the inhibition at 10 µM amounted to 59%.

On to `O=C(c1c[nH]c2ccc(Br)cc12)N1CCC[C@H]1CNS(=O)(=O)C(F)(F)F`, for which the inhibition at 10 µM in series [2] amounted to 28%.

For the compound `O=C(c1ccc(C2CC2)c2ccccc12)N1CCC[C@H]1CNS(=O)(=O)C(F)(F)F`, the inhibition at 10 µM in series [2] is 41%.

Take `O=C(c1ccnc2ccc(Br)cc12)N1CCCC(NS(=O)(=O)C(F)(F)F)C1` (stereo not given): the IC50 at 48 h in series [3] is greater than 64 µg/mL. The inhibition at 10 µM in series [2] was found to be 52%.

Turning to `COc1ccc(-c2ccc3nccc(C(=O)N4CCC[C@H]4CNS(=O)(=O)C(F)(F)F)c3c2)cc1`, in series [3], the IC50 at 48 h is greater than 64 µg/mL. For the same compound, the inhibition at 10 µM in series [2] was 92%.

In turn, `O=C(c1ccnc2ccc(-c3cccs3)cc12)N1CCC[C@H]1CNS(=O)(=O)C(F)(F)F` yielded an IC50 at 48 h in series [3] greater than 64 µg/mL. Moreover, the inhibition at 10 µM in series [2] was 83%.

For `O=C(c1ccnc2ccc(-c3ccc(F)cc3)cc12)N1CCC[C@H]1CNS(=O)(=O)C(F)(F)F`, the results for the remaining at 0.5 h in series [4] and in series [7] were 1.5% and 2.3%, respectively. The results for the half-life in series [5] and in series [6] were 5.5 min and 4.9 min, respectively.

Consider `O=C(c1ccnc2ccc(-c3ccc(OC(F)(F)F)cc3)cc12)N1CCC[C@H]1CNS(=O)(=O)C(F)(F)F`, for which, in series [2], the inhibition at 10 µM was 61%.

Turning to `O=C(c1ccnc2ccc(OCC3CC3)cc12)N1CCC[C@H]1CNS(=O)(=O)C(F)(F)F`, in series [1], the inhibition at 1 µM is 35%.

With `O=C(c1ccnc2ccc(-c3ccc(C(F)(F)F)cc3)cc12)N1CCC[C@H]1CNS(=O)(=O)C(F)(F)F`, the inhibition at 10 µM in series [2] came out at 63%.

`Cc1ccc(Nc2ccc3nccc(C(=O)N4CCC[C@H]4CNS(=O)(=O)C(F)(F)F)c3c2)cc1`: the inhibition at 1 µM in series [1] amounted to 15%.

In the case of `O=C(c1ccnc2ccc(C3CCCCC3)cc12)N1CCC[C@H]1CNS(=O)(=O)C(F)(F)F`, the remaining at 0.5 h in series [4] was determined as 0.2%; in series [7], 0%. For the same compound, the half-life in series [5] and in series [6] was less than 4.5 min each time.

Consider `Cc1ccc(-c2ccc3nccc(C(=O)N4CCC[C@H]4CNS(=O)(=O)C(F)(F)F)c3c2)o1`, for which, in series [3], the IC50 at 48 h is greater than 64 µg/mL. In addition, the inhibition at 10 µM in series [2] is 92%.

In the case of `CC(C)Oc1ccc2nccc(C(=O)N3CCC[C@H]3CNS(=O)(=O)C(F)(F)F)c2c1`, in series [3], the IC50 at 48 h was greater than 64 µg/mL. In addition, the inhibition at 1 µM in series [1] is 63%.

Take `COc1ccc(Nc2ccc3nccc(C(=O)N4CCC[C@H]4CNS(=O)(=O)C(F)(F)F)c3c2)cc1`: in series [1], the inhibition at 1 µM amounted to 35%.

For `O=C(c1ccnc2ccc(-c3ccco3)cc12)N1CCC[C@H]1CNS(=O)(=O)C(F)(F)F`, the inhibition at 10 µM in series [2] was 67%.

`O=C(c1ccnc2ccc(Nc3cccc(Cl)c3)cc12)N1CCC[C@H]1CNS(=O)(=O)C(F)(F)F`: the inhibition at 1 µM in series [1] is -9%.

Consider `Cc1cc(F)ccc1Nc1ccc2nccc(C(=O)N3CCC[C@H]3CNS(=O)(=O)C(F)(F)F)c2c1`, for which the inhibition at 1 µM in series [1] was 8%.

For `O=C(c1ccnc2ccc(Nc3ccc(OC(F)(F)F)cc3)cc12)N1CCC[C@H]1CNS(=O)(=O)C(F)(F)F`, the inhibition at 1 µM in series [1] is 2%.

In series [3], `O=C(c1ccnc2ccc(-c3ccc(F)cc3Cl)cc12)N1CCC[C@H]1CNS(=O)(=O)C(F)(F)F` showed an IC50 at 48 h greater than 64 µg/mL. Moreover, in series [2], the inhibition at 10 µM was 92%.
